# Experiments:
# [1] = test system: Barnyardgrass (Echinochloa crus-galli); experiment: Postemergence herbicidal activity, greenhouse spray; type: in vivo; details: Echinochloa crus-galli, post-emergence, 336 h, visual score after 2 weeks, read-out: Post-emergent % control ECHCG; for pest or weed control at 250 ppm / pest or weed control at 500 ppm: Table 1; for pest or weed control at 250 ppm: rate 250 ppm; for pest or weed control at 500 ppm: rate 500 ppm; for pest or weed control at 125 ppm: Table 2, rate 125 ppm
# Method in brief: (§1)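 Test compounds, serially diluted into an aqueous acetone–isopropanol–DMSO vehicle with crop oil concentrate and Triton X-155, were atomizer-sprayed over plants at the 1–2 true leaf stage. Plants grew 7–21 days beforehand under ~15 h light; sub-irrigation followed treatment, with vehicle-sprayed controls.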
# [2] = test system: Cocklebur (Xanthium strumarium); experiment: as above; type: in vivo; details: Xanthium strumarium, post-emergence, 336 h, visual score after 2 weeks, read-out: Post-emergent % control XANST; for pest or weed control at 250 ppm / pest or weed control at 500 ppm: Table 1; for pest or weed control at 250 ppm: rate 250 ppm; for pest or weed control at 500 ppm: rate 500 ppm, 0 no injury, 100 complete kill; for pest or weed control at 125 ppm: Table 2, rate 125 ppm
# Method in brief: as §1
# [3] = test system: Lambsquarter (Chenopodium album); experiment: as above; type: in vivo; details: Chenopodium album, post-emergence, 336 h, visual score after 2 weeks, read-out: Post-emergent % control CHEAL; for pest or weed control at 250 ppm / pest or weed control at 500 ppm: Table 1; for pest or weed control at 250 ppm: rate 250 ppm; for pest or weed control at 500 ppm: rate 500 ppm; for pest or weed control at 125 ppm: Table 2, rate 125 ppm
# Method in brief: as §1
# [4] = test system: Yellow nutsedge (Cyperus esculentus); experiment: as above; type: in vivo; details: Cyperus, post-emergence, 336 h, visual score after 2 weeks, read-out: Post-emergent % control CYPES; for pest or weed control at 250 ppm / pest or weed control at 500 ppm: Table 1; for pest or weed control at 250 ppm: rate 250 ppm; for pest or weed control at 500 ppm: rate 500 ppm; for pest or weed control at 125 ppm: Table 2, rate 125 ppm
# Method in brief: as §1
# [5] = test system: Crabgrass(large) (Digitaria sanguinalis); experiment: Preemergence herbicidal activity, soil spray; type: in vivo; details: Digitaria sanguinalis, pre-emergence, 504 h, Table 5, visual score after 3 weeks, read-out: Pre-emergent % control DIGSA; for pest or weed control at 560 ppm: rate 560 ppm
# Text: (§2) Seeds of the desired test plant species were planted in a soil matrix prepared by mixing a loam soil (43 percent silt, 19 percent clay, and 38 percent sand, with a pH of about 8.1 and an organic matter content of about 1.5 percent) and sand in a 70 to 30 ratio. The soil matrix was contained in plastic pots with a surface area of 113 square centimeters. When required to ensure good germination and healthy plants, a fungicide treatment and/or other chemical or physical treatment was applied. A weighed amount, determined by the highest rate to be tested, of each test compound was placed in a 20 mL glass vial and was dissolved in 4 mL of a 97:3 v/v (volume/volume) mixture of acetone and dimethyl sulfoxide to obtain concentrated stock solutions. […] The stock solutions obtained were diluted with a 99.9:0.1 mixture of water and Tween® 155 surfactant to obtain application solutions of known concentration. The solutions containing the highest concentration to be tested were prepared by diluting 2 mL aliquots of the stock solution with 15 mL of the mixture and lower concentrations were prepared by serial dilution of the stock solution. A 2.5 mL aliquot of each solution of known concentration was sprayed evenly onto the soil surface (113 sq. cm) of each seeded pot using a Cornwall 5.0 mL glass syringe fitted with a TeeJet TN-3 hollow cone nozzle to obtain thorough coverage of the soil in each pot. Control pots were sprayed in the same manner with the aqueous mixture. The treated pots and control pots were placed in a greenhouse maintained with an approximate 15 hr photoperiod and temperatures of about 23-29° C. during the day and 22-28° C. during the night. Nutrients and water were added on a regular basis and supplemental lighting was provided with overhead metal halide 1000-Watt lamps as necessary. The water was added by top-irrigation.
# [6] = test system: Giant Foxtail (Setaria faberi); experiment: Preemergence herbicidal activity, soil spray; type: in vivo; details: Setaria faberi, pre-emergence, 504 h, Table 5, visual score after 3 weeks, read-out: Pre-emergent % control SETFA; for pest or weed control at 560 ppm: rate 560 ppm
# Text: as §2
# [7] = test system: Lambsquarter (Chenopodium album); experiment: Preemergence herbicidal activity, soil spray; type: in vivo; details: Chenopodium album, pre-emergence, 504 h, Table 5, visual score after 3 weeks, read-out: Pre-emergent % control CHEAL; for pest or weed control at 560 ppm: rate 560 ppm, 100 complete kill or no germination
# Text: as §2
# [8] = test system: Pigweed (redroot) (Amaranthus retroflexus); experiment: Preemergence herbicidal activity, soil spray; type: in vivo; details: Amaranthus retroflexus, pre-emergence, 504 h, Table 5, visual score after 3 weeks, read-out: Pre-emergent % control AMARE; for pest or weed control at 560 ppm: rate 560 ppm
# Text: as §2
SMILES,melting point,pest or weed control at 250 ppm [1],pest or weed control at 250 ppm [2],pest or weed control at 250 ppm [3],pest or weed control at 250 ppm [4],pest or weed control at 560 ppm [5],pest or weed control at 560 ppm [6],pest or weed control at 560 ppm [7],pest or weed control at 560 ppm [8],pest or weed control at 500 ppm [1],pest or weed control at 500 ppm [2],pest or weed control at 500 ppm [3],pest or weed control at 500 ppm [4],other results
"COC(=O)c1nc(-c2ccc3c(c2)OCO3)c(F)c(N)c1Cl [Compound 84, Methyl 4-amino-3-chloro-5-fluoro-6-(3,4-methylenedioxyphenyl)pyridine-2-carboxylate]",160 °C,98%,100%,100%,100%,100%,100%,100%,100%,,,,,pest or weed control at 125 ppm [1]: 98%; pest or weed control at 125 ppm [2]: 100%; pest or weed control at 125 ppm [3]: 100%; pest or weed control at 125 ppm [4]: 90%
"COC(=O)c1nc(-c2ccc(Cl)cc2)c(F)c(N)c1F [Compound 90, Methyl 4-amino-3,5-difluoro-6-(4-chlorophenyl)pyridine-2-carboxylate]",165 to 166 °C,,,,,100%,100%,100%,100%,98%,100%,100%,90%,
"COC(=O)c1nc(-c2ccc(C)cc2)c(F)c(N)c1F [Compound 91, Methyl 4-amino-3,5-difluoro-6-(4-methylphenyl)pyridine-2-carboxylate]",145 to 146 °C,,,,,100%,60%,90%,100%,90%,100%,100%,80%,
"COC(=O)c1nc(-c2ccc(Cl)cc2F)c(F)c(N)c1F [Compound 93, Methyl 4-amino-3,5-difluoro-6-(4-chloro-2-fluorophenyl)pyridine-2-carboxylate]",182 to 183 °C,,,,,30%,50%,100%,100%,90%,100%,95%,80%,
"COc1ccccc1-c1cc(N)c(Cl)c(C(=O)O)n1 [Compound 139, 4-Amino-3-chloro-6-(2-methoxyphenyl)pyridine-2-carboxylic acid]",177 to 179 °C,70%,100%,95%,30%,100%,100%,100%,100%,,,,,
"COc1ccc(-c2cc(N)c(Cl)c(C(=O)O)n2)cc1 [Compound 141, 4-Amino-3-chloro-6-(4-methoxyphenyl)pyridine-2-carboxylic acid]",192 °C,80%,100%,100%,10%,60%,70%,100%,98%,,,,,

# Further lines, with some results ahead:
melting point,SMILES,pest or weed control at 250 ppm [1],pest or weed control at 250 ppm [2],pest or weed control at 250 ppm [3],pest or weed control at 250 ppm [4],pest or weed control at 560 ppm [5],pest or weed control at 560 ppm [6],pest or weed control at 560 ppm [7],pest or weed control at 560 ppm [8],pest or weed control at 500 ppm [1],pest or weed control at 500 ppm [2],pest or weed control at 500 ppm [3],pest or weed control at 500 ppm [4],other results
141 °C,"COC(=O)c1nc(-c2cccc(Cl)c2)cc(N)c1Cl [Compound 27, Methyl 4-amino-3-chloro-6-(3-chlorophenyl)pyridine-2-carboxylate]",70%,95%,95%,60%,100%,100%,100%,100%,,,,,
149 °C,"COC(=O)c1nc(-c2ccc(C(F)(F)F)cc2)cc(N)c1Cl [Compound 28, Methyl 4-amino-3-chloro-6-[4-(trifluoromethyl)phenyl]pyridine-2-carboxylate]",75%,100%,100%,80%,100%,100%,100%,100%,,,,,
169 to 170 °C,"COC(=O)c1nc(-c2ccc(F)c(Cl)c2)cc(N)c1Cl [Compound 39, Methyl 4-amino-3-chloro-6-(3-chloro-4-fluorophenyl)pyridine-2-carboxylate]",,,,,,,,,95%,100%,100%,99%,pest or weed control at 140 ppm ([5]; rate 140 ppm): 95%; pest or weed control at 140 ppm ([6]; rate 140 ppm): 75%; pest or weed control at 140 ppm ([7]; rate 140 ppm): 95%; pest or weed control at 140 ppm ([8]; rate 140 ppm): 100%
160 to 162 °C,"COC(=O)c1nc(-c2ccc(Cl)cc2)c(Cl)c(N)c1Cl [Compound 86, Methyl 4-amino-3,5-dichloro-6-(4-chlorophenyl)pyridine-2-carboxylate]",,,,,40%,40%,100%,100%,90%,100%,100%,90%,pest or weed control at 125 ppm [1]: 80%; pest or weed control at 125 ppm [2]: 100%; pest or weed control at 125 ppm [3]: 100%; pest or weed control at 125 ppm [4]: 100%
122 °C,"COC(=O)c1nc(-c2ccc(Cl)cc2Cl)c(F)c(N)c1Cl [Compound 88, Methyl 4-amino-3-chloro-5-fluoro-6-(2,4-dichlorophenyl)pyridine-2-carboxylate]",85%,100%,100%,95%,70%,70%,100%,100%,,,,,pest or weed control at 125 ppm [1]: 85%; pest or weed control at 125 ppm [2]: 100%; pest or weed control at 125 ppm [3]: 100%; pest or weed control at 125 ppm [4]: 95%
173 to 175 °C,"Cc1cccc(-c2cc(N)c(Cl)c(C(=O)O)n2)c1 [Compound 138, 4-Amino-3-chloro-6-(3-methylphenyl)pyridine-2-carboxylic acid]",50%,100%,100%,20%,100%,98%,100%,100%,,,,,

# Source: patent US6784137B2, “6-aryl-4-aminopicolinates and their use as herbicides” (Dow AgroSciences LLC, priority 2001, dated 2004)
